The values that follow come from patent EP0794786B1, “THE USE OF INOSITOLTRI[…] THE PREPARING OF MEDICAMENTS” (Bioneris AB,, priority 1994, dated 1996).

Type in all cases: in vivo
The subject of one data set is glioma tumor tissue. Briefly: Glioma tumor growth in mice after subcutaneous inoculation of rat glial cells, IP3 via osmotic minipumps. Here is the method: Rat glial cells were grown in a stationary suspension culture in a medium supplemented with 15 % heat inactivated horse serum and 2.5 % heat inactivated fetal calf serum in a 5 % CO2 humidified atmosphere at 37°C.
The cells were harvested using trypsine solution and the concentration of cells were measured. The cells were centrifuged and resuspended to a concentration of 1 million cells/ml.
Twelve female specific pathogen free mice at an age of 12 weeks (weighing 20-25 g) were maintained in autoclaved cages with filter tops in horizontal air flow cabiners in a unit equipped with specific filters. Autoclaved bedding, irradiated feed and sterile water was used. The temperature and humidity was kept constant at 22 ± 2°C, 65 ± 5 % relative humidity.
To each animal 0.1 ml of the cellsuspension was inoculated subcutanousely in the right flank at day 0.
After five days, osmotic minipumps (ALZET) were surgically placed subcutanously into 7 animals, while 5 animals, shamoperated, served as a control group.
Each minipump contained approximately 200 µl of a solution of 1.0 g/2,5 ml of the sodium salt of 1-D-myo-inositol-1,2,6-trisphosphate (IP3). The minipumps gave a continous dosage of IP3 for 14 days.
The injection of glioma cells into the animals cause a growth of tumors. The growth of the tumors was examined by measuring two diameters along two perpendicular axes. The true tumor diameter was estimated as the diameter minus 0.5 mm (which is the thickness of the skin). Tumor area (A) was calculated by multiplying the two true diameters and tumor volume was calculated by the formula: /6 x A^3/2 x 0.67.

The subject of a further data set is prostate tumor tissue. Kind of data set: Prostate tumor growth in mice after subcutaneous injection of a specific cell type, IP3 via osmotic minipumps. An excerpt:
In a procedure similar to the one described in example 2 prostate tumor growth was induced by subcutanous injection of a specific cell type to mice. One group of animals received IP3 via osmotic minipumps while another group of animals served as a control.

The test system of data set [1] is Lewis lung carcinoma cells (ATCC CRL-1642). Briefly: Lewis lung carcinoma experiment in mice: lung weight and histological angiogenesis. The method, then: Lewis lung carcinoma cells (ATCC CRL-1642) were grown as a suspension culture in a medium with 4.5 g/l glucose with 10 % heat inactivated bovine serum in a 5 % CO2 humidified atmosphere at 37°C. The cells were subcultured by diluting cell suspensions 1:6. After harvesting by centrifugation and resuspension, the cells were counted in a counting chamber. The cells were resuspended with medium to a concentration of 10 million cells/ml.
Ten male specific pathogen free mice at an age of 6 weeks were maintained in autoclaved caves with filter tops in a barrier unit equipped with HEPA filters. Autoclaved bedding, irradiated feed and sterile filtered water was used. The temperature and humidity was kept constant (22 ± 2°C, 65 ± 5 % RH).
To each animal 0.1 ml of the cell suspension was inoculated subcutanousely in the right flank at day 0. After 15 days, osmotic minipumps (ALZET) were surgically placed subcutaneously into 5 animals while another 5 animals, sham operated, served as a control group.
Each minipump contained 226 µl of a solution of 0.4 g/ml of the sodium salt of 1-D-myo-inositol-1,2,6-trisphosphate (IP3). The minipumps gave a continous dosage of IP3 for 6 days.
The injection of lung carcinoma cells cause a formation of tumors and angiogenesis in lung tissue. The weight of the lungs after the experiment is considered as a measurement of the amount of tumor tissue which is formed.

Data set [2] is described as follows: Toxicity after intraperitoneal injection to mice. To be noted: 160 mg/kg body weight by intraperitoneal injection to mice.

With `O=P(O)(O)O[C@@H]1[C@H](OP(=O)(O)O)[C@H](O)[C@@H](O)[C@H](O)[C@H]1OP(=O)(O)O` [IP3, D-myo-inositol-1,2,6-trisphosphate], the Tumor volume stood at 0 mm^3 with glioma tumor tissue (Day 0 (inoculation; minipumps placed after five days)); 115 mm^3 in the data set with glioma tumor tissue (Day 10, sodium salt of IP3 1.0 g/2,5 ml, approx. 200 µl minipump s.c. from day 5, continuous for 14 days); 270 mm^3 with glioma tumor tissue (Day 13, minipump s.c. from day 5, continuous for 14 days); 620 mm^3 in the data set on glioma tumor tissue (Day 15, minipump s.c. from day 5, continuous for 14 days); 880 mm^3 with glioma tumor tissue (Day 17, minipump s.c. from day 5, continuous for 14 days); 2420 mm^3 in the data set with glioma tumor tissue (Day 20, minipump s.c. from day 5, continuous for 14 days). Moreover, the Tumor volume was 0 mm^3 with prostate tumor tissue (Day 0); 36 mm^3 with prostate tumor tissue (Day 7); 62 mm^3 in the data set with prostate tumor tissue (Day 10); 51 mm^3 in the data set with prostate tumor tissue (Day 17); 95 mm^3 in the data set on prostate tumor tissue (Day 24); 171 mm^3 in the data set with prostate tumor tissue (Day 28). For the same compound, in the data set on prostate tumor tissue (Day 35), the Tumor volume is on record as 215 mm^3. Further, in data set [1] (IP3 minipump s.c. after 15 days, for 6 days, compared with sham operated animals), the “angiogenesis (histological examination)” value is on record as “lower angiogenesis”. The mean lung weight in data set [1] (sodium salt of IP3 0.4 g/ml, 226 µl minipump s.c. after 15 days, continuous for 6 days, sham operated animals 0.312 g) came to 0.198 g. The toxic effects result in data set [2] was “no toxic effects”.
